In assay [1] the test system is A431 cells (human epidermoid carcinoma). Nature of the assay: In vitro tumor cell proliferation assay (Cell Titer-Glo luminescent cell viability), A431. The format is cell-based. The settings on record: A-431, 72 h, 72 hours of drug exposure, ATP luminescence readout, read-out: IC50, anti-proliferative activity (inhibition of cell proliferation). The procedure, abridged: (§1)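 Proliferation inhibition was measured as ATP-dependent luciferase signal after cells in RPMI with 10% FBS received test compound for 72 h at 37° C. Final concentrations spanned […] to 64 pM in 0.1% DMSO; IC50 values were derived.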

For assay [2], the system named is BT474 (human breast carcinoma). Briefly: In vitro tumor cell proliferation assay (Cell Titer-Glo luminescent cell viability), BT474. The format is cell-based. To be noted: BT-474, 72 h, BT474 cells, 72 hours of drug exposure, ATP luminescence readout, read-out: IC50, anti-proliferative activity (inhibition of cell proliferation). The essentials: as §1

SMILES strings stand for the structures. Where a name gives a salt, the structure may show the parent alone.

For the molecule `CN(C)CC(=O)N1CCC(Cn2cc3c(n2)CCc2c-3sc3ncnc(Nc4ccc(OCc5cccc(F)c5)c(Cl)c4)c23)CC1` [Example 241, N-{3-chloro-4-[(3-fluorobenzyl)oxy]phenyl}-2-({1-[(dimethylamino)acetyl]piperidin-4-yl}methyl)-4,5-dihydro-2H-pyrimido[5′,4′:4,5]thieno[2,3-e]indazol-6-amine trifluoroacetate], the IC50 in assay [1] is no more than 5 µM; in assay [2] it was no more than 1 µM.
With `Fc1ccc(Nc2ncnc3sc4c(c23)CCc2nn(CCN3CCCC3)cc2-4)cc1Cl` [Example 9, N-(3-chloro-4-fluorophenyl)-2-(2-pyrrolidin-1-ylethyl)-4,5-dihydro-2H-pyrimido[5′,4′:4,5]thieno[2,3-e]indazol-6-amine], the IC50 in assay [1] and in assay [2] was no more than 5 µM throughout.
Consider `O=C(O)Cn1ncc2c1CCc1c-2sc2ncnc(Nc3ccc(OCc4cccc(F)c4)c(Cl)c3)c12` [Example 191, [6-({3-chloro-4-[(3-fluorobenzyl)oxy]phenyl}amino)-4,5-dihydro-3H-pyrimido[5′,4′:4,5]thieno[2,3-e]indazol-3-yl]acetic acid], for which the IC50 in assay [1] and in assay [2] was no more than 50 µM each time.
For the molecule `O=C(Cn1ncc2c1CCc1c-2sc2ncnc(Nc3ccc(OCc4cccc(F)c4)c(Cl)c3)c12)N1CCOCC1` [Example 199, N-{3-chloro-4-[(3-fluorobenzyl)oxy]phenyl}-3-(2-morpholin-4-yl-2-oxoethyl)-4,5-dihydro-3H-pyrimido[5′,4′:4,5]thieno[2,3-e]indazol-6-amine], the IC50 in assay [1] was no more than 50 µM; in assay [2], no more than 1 µM.
For `Fc1ccc(Nc2ncnc3sc4c(c23)CCc2c-4cnn2CCN2CCNCC2)cc1Cl` [Example 94, N-(3-chloro-4-fluorophenyl)-3-(2-piperazin-1-ylethyl)-4,5-dihydro-3H-pyrimido[5′,4′:4,5]thieno[2,3-e]indazol-6-amine], the IC50 in assay [1] and in assay [2] was no more than 5 µM in each case.
As for `CN(C)C1CCN(CCn2cc3c(n2)CCc2c-3sc3ncnc(Nc4ccc5c(cnn5Cc5cccc(F)c5)c4)c23)C1` (stereo not drawn) [Example 282, 2-{2-[3-(dimethylamino)pyrrolidin-1-yl]ethyl}-N-[1-(3-fluorobenzyl)-1H-indazol-5-yl]-4,5-dihydro-2H-pyrimido[5′,4′:4,5]thieno[2,3-e]indazol-6-amine], the IC50 in assay [1] was no more than 5 µM; in assay [2] it was no more than 1 µM.
For `Fc1ccc(Nc2ncnc3sc4c(c23)CCc2c-4cnn2CCNCCN2CCOCC2)cc1Cl` [Example 93, N-(3-chloro-4-fluorophenyl)-3-{2-[(2-morpholin-4-ylethyl)amino]ethyl}-4,5-dihydro-3H-pyrimido[5′,4′:4,5]thieno[2,3-e]indazol-6-amine], in that order: no more than 5 µM and no more than 5 µM.
The like results for `Clc1cc(Nc2ncnc3sc4c(c23)CCc2nn(CCN3CCOCC3)cc2-4)ccc1OCc1ccccc1` [Example 126, N-[4-(benzyloxy)-3-chlorophenyl]-2-(2-morpholin-4-ylethyl)-4,5-dihydro-2H-pyrimido[5′,4′:4,5]thieno[2,3-e]indazol-6-amine] were, in that order, no more than 50 µM and no more than 1 µM.
Take `O[C@H](Cn1ccnc1)Cn1cc2c(n1)CCc1c-2sc2ncnc(Nc3ccc(OCc4cccc(F)c4)c(Cl)c3)c12` [Example 141, (2R)-1-[6-({3-chloro-4-[(3-fluorobenzyl)oxy]phenyl}amino)-4,5-dihydro-2H-pyrimido[5′,4′:4,5]thieno[2,3-e]indazol-2-yl]-3-(1H-imidazol-1-yl)propan-2-ol trifluoroacetate (salt)]: the IC50 in assay [1] was no more than 50 µM; in assay [2], no more than 1 µM.
As for `CN1CCN(CCn2cc3c(n2)CCc2c-3sc3ncnc(Nc4ccc(OC(F)(F)F)c(Cl)c4)c23)CC1` [Example 53, N-[3-chloro-4-(trifluoromethoxy)phenyl]-2-[2-(4-methylpiperazin-1-yl)ethyl]-4,5-dihydro-2H-pyrimido[5′,4′:4,5]thieno[2,3-e]indazol-6-amine], the IC50 is no more than 5 µM in assay [1] and no more than 1 µM in assay [2].
In the case of `CN1CCN(CCn2cc3c(n2)CCc2c-3sc3ncnc(Nc4ccc(OCc5ccccc5)c(Cl)c4)c23)CC1` [Example 54, N-[4-(benzyloxy)-3-chlorophenyl]-2-[2-(4-methylpiperazin-1-yl)ethyl]-4,5-dihydro-2H-pyrimido[5′,4′:4,5]thieno[2,3-e]indazol-6-amine], the IC50 in assay [1] was no more than 5 µM; in assay [2] it was no more than 1 µM.
For `COc1cccc(COc2ccc(Nc3ncnc4sc5c(c34)CCc3nn(CCN4CCN(C)CC4)cc3-5)cc2Cl)c1` [Example 324, N-{3-chloro-4-[(3-methoxybenzyl)oxy]phenyl}-2-[2-(4-methylpiperazin-1-yl)ethyl]-4,5-dihydro-2H-pyrimido[5′,4′:4,5]thieno[2,3-e]indazol-6-amine], the IC50 in assay [1] and in assay [2] was no more than 5 µM in each case.
With `CN1CCN(C[C@@H](O)Cn2cc3c(n2)CCc2c-3sc3ncnc(Nc4ccc(OCc5cccc(F)c5)c(Cl)c4)c23)CC1` [Example 136, (2R)-1-[6-({3-chloro-4-[(3-fluorobenzyl)oxy]phenyl}amino)-4,5-dihydro-2H-pyrimido[5′,4′:4,5]thieno[2,3-e]indazol-2-yl]-3-(4-methylpiperazin-1-yl)propan-2-ol], the IC50 in assay [1] was no more than 50 µM; in assay [2] it was no more than 1 µM.
Regarding `OCCn1cc2c(n1)CCc1c-2sc2ncnc(Nc3ccc(OCc4ccccn4)c(Cl)c3)c12` [Example 99, 2-(6-{[3-chloro-4-(pyridin-2-ylmethoxy)phenyl]amino}-4,5-dihydro-2H-pyrimido[5′,4′:4,5]thieno[2,3-e]indazol-2-yl)ethanol], the results for the IC50 in assay [1] and in assay [2] were no more than 5 µM and no more than 1 µM, respectively.
For `O[C@H](CN1CCCCC1)Cn1cc2c(n1)CCc1c-2sc2ncnc(Nc3ccc(OCc4cccc(F)c4)c(Cl)c3)c12` [Example 148, (2R)-1-[6-({3-chloro-4-[(3-fluorobenzyl)oxy]phenyl}amino)-4,5-dihydro-2H-pyrimido[5′,4′:4,5]thieno[2,3-e]indazol-2-yl]-3-piperidin-1-ylpropan-2-ol trifluoroacetate (salt)], the figures for the IC50 in assay [1] and in assay [2] were no more than 50 µM and no more than 1 µM, respectively.
As to `Cc1cc(Oc2ccc(Nc3ncnc4sc5c(c34)CCc3nn(CCN4CCN(C)CC4)cc3-5)c(F)c2)ccn1` [Example 341, N-{2-fluoro-4-[(2-methylpyridin-4-yl)oxy]phenyl}-2-[2-(4-methylpiperazin-1-yl)ethyl]-4,5-dihydro-2H-pyrimido[5′,4′:4,5]thieno[2,3-e]indazol-6-amine], the IC50 in assay [1] is no more than 50 µM; in assay [2] it was no more than 5 µM.
Take `Fc1ccc(Nc2ncnc3sc4c(c23)CCc2nn(CCN3CCOCC3)cc2-4)cc1Cl` [Example 5, N-(3-chloro-4-fluorophenyl)-2-(2-morpholin-4-ylethyl)-4,5-dihydro-2H-pyrimido[5′,4′:4,5]thieno[2,3-e]indazol-6-amine]: the IC50 in assay [1] and in assay [2] was no more than 5 µM each time.
Regarding `OCCNCCn1cc2c(n1)CCc1c-2sc2ncnc(Nc3ccc(F)c(Cl)c3)c12` [Example 19, 2-[(2-{6-[(3-chloro-4-fluorophenyl)amino]-4,5-dihydro-2H-pyrimido[5′,4′:4,5]thieno[2,3-e]indazol-2-yl}ethyl)amino]ethanol], the IC50 in assay [1] and in assay [2] was no more than 5 µM in each case.
As to `O=C(Cn1ncc2c1CCc1c-2sc2ncnc(Nc3ccc(OCc4cccc(F)c4)c(Cl)c3)c12)NCCN1CCNCC1` [Example 200, 2-[6-({3-chloro-4-[(3-fluorobenzyl)oxy]phenyl}amino)-4,5-dihydro-3H-pyrimido[5′,4′:4,5]thieno[2,3-e]indazol-3-yl]-N-(2-piperazin-1-ylethyl)acetamide], the IC50 is no more than 50 µM in assay [1] and no more than 1 µM in assay [2].
For the molecule `CS(=O)(=O)CCNCCn1cc2c(n1)CCc1c-2sc2ncnc(Nc3ccc4c(cnn4Cc4ccccc4)c3)c12` [Example 307, N-(1-benzyl-1H-indazol-5-yl)-2-(2-{[2-(methylsulfonyl)ethyl]amino}ethyl)-4,5-dihydro-2H-pyrimido[5′,4′:4,5]thieno[2,3-e]indazol-6-amine], the results for the IC50 in assay [1] and in assay [2] were no more than 50 µM and no more than 1 µM, respectively.
For `CCN1CCN(CCn2cc3c(n2)CCc2c-3sc3ncnc(Nc4ccc(F)c(Cl)c4)c23)CC1` [Example 36, N-(3-chloro-4-fluorophenyl)-2-[2-(4-ethylpiperazin-1-yl)ethyl]-4,5-dihydro-2H-pyrimido[5′,4′:4,5]thieno[2,3-e]indazol-6-amine], in that order: no more than 5 µM and no more than 5 µM.
In the case of `CN1CCN(CCn2ncc3c2CCc2c-3sc3ncnc(Nc4ccc(F)c(Cl)c4)c23)CC1` [Example 90, N-(3-chloro-4-fluorophenyl)-3-[2-(4-methylpiperazin-1-yl)ethyl]-4,5-dihydro-3H-pyrimido[5′,4′:4,5]thieno[2,3-e]indazol-6-amine trifluoroacetate], the IC50 in assay [1] and in assay [2] was no more than 5 µM each time.
`CCN(CC)CC(=O)N1CCC(Cn2cc3c(n2)CCc2c-3sc3ncnc(Nc4ccc(OCc5cccc(F)c5)c(Cl)c4)c23)CC1` [Example 242, N-{3-chloro-4-[(3-fluorobenzyl)oxy]phenyl}-2-({1-[(diethylamino)acetyl]piperidin-4-yl}methyl)-4,5-dihydro-2H-pyrimido[5′,4′:4,5]thieno[2,3-e]indazol-6-amine trifluoroacetate]: the values for the IC50 in assay [1] and in assay [2] were no more than 5 µM and no more than 1 µM, respectively.
As for `OC1CCN(CCn2ncc3c2CCc2c-3sc3ncnc(Nc4ccc5c(cnn5Cc5cccc(F)c5)c4)c23)C1` (stereo not drawn) [Example 299, 1-[2-(6-{[1-(3-fluorobenzyl)-1H-indazol-5-yl]amino}-4,5-dihydro-3H-pyrimido[5′,4′:4,5]thieno[2,3-e]indazol-3-yl)ethyl]pyrrolidin-3-ol], the IC50 is no more than 5 µM in assay [1] and no more than 1 µM in assay [2].

Values taken from patent US8207172B2 (Bayer Intellectual Property GmbH, priority 2004, dated 2012).
